Measurements from patent US20160297828A1, “SPIROCYCLIC COMPOUNDS CONTAINING SPIRO[INDOLYL-3,1'-PYRROLO[3,4-C]PYRROLE] CORE AND SULPHUR-CONTAINING AMINO ACID RESIDUES” (priority 2013, published 2016).
“And” between values parts separate entries of the source, which are not always exact repeats. Equal values may be shown once.

Key:
[1] = tested on: rats with intracerebral hemorrhage; assay: Neurological deficit (C. P. McGrow stroke-index scale) in rats with intracerebral hemorrhage; assay type: in vivo; settings: n = 15
Experimental: (§1) Neuroprotective effect of 3,2′-spiro-pyrrolo-2-oxindole derivative (SI-86 compound) was studied on IUD model of moderate severity modeled under propofol anesthesia (60 mg/kg intraperitoneally (ip)) by autoblood administration into the brain internal capsule (stereotactic coordinates of the projection: H=7.0 mm, L=3.0 mm, A=1.5 mm from bregma) ([…]) (Method for reproduction of intracerebral hemorrhage in rats/O. K. Yarosh, S. V. Kyrychenko, S. P. Halimonchyk [et al.]//Circulation and hemostasis.-2005.-No. 1.-P. 77-81). The chosen model allows to reproduce clinical pattern of […] and is adequate for clinical study of potential neuroprotective agents.
(§2) As comparators the following drugs were used: mexydol (“Mexydol” UC Pharmasoft, Russia), 100 mg/kg; citicoline (“Somazina” Ferrer International, SA, Spain), 250 mg/kg; aktovegin (“Aktovegin”, Nycomed, Austria), 16 mg/kg pyracetam (“Pyracetam” Darnitsa, Ukraine), 400 mg/kg. According to the latest clinical guidelines regarding the treatment of patients with CVA approved by the Ministry of Health of Ukraine (Order No. 602 dated 3 Aug. 2012), all these drugs are allowed to be included into schemes for intensive patients therapy with CVA as neuroprotective agents. They were used at recommended doses for preclinical studies (McGrow C. P. Experimental Cerebral Infarction Effects of Pentobarbital in Mongolian Gerbils/C. P. McGrow//Arch. Neurol.-1977.-Vol. 34, No. 6.-P. 334-336). Experimental therapy of acute cerebral ischemia with SI-86 compound and comparator started 1 hour after IUD once a day for 21 days. The SI-86 derivative was investigated in conventionally effective dose of 10 mg/kg […] (iv)-dose that according to the results of our previous study provides maximum antihypoxic activity of SI-86 compound. Reference drugs were injected intraperitoneally (ip). Rats of control pathology group were injected by autoblood and as therapy 0.9% NaCI solution was administered calculated for 2 ml/kg […].
Neurological deficit in animals with acute CVA respectively in acute (4th day) and recovery (21 st day) periods was measured on C. P. McGrow stroke-index scale. The state severity was determined by amount of relevant points: to 3 points-mild, 3 to 7 points-average, above 7 points-severe degree. Pareses, paralyses of limbs, tremors, circus movement, ptoses, lateral positions, ability of rats to be maintained at the core of 15 cm diameter, rotating at the rate of 3 rpm were noted. The animals were tested daily by displaying the amount of points:
one-sided semi-ptosis—0.5 points; one-sided ptosis—1 point; tremor—0.5 points; circus movements—0.5 points; pareses of limbs (for each limb)—1 point; paralyses of limbs (for each limb)—2 points; lateral position—3 points; disability to maintain on rotating rod during 4 minutes—3 points.

[2] = tested on: rats with intracerebral hemorrhage; assay: Conditioned response of passive avoidance (CRPA) in rats with intracerebral hemorrhage; assay type: in vivo; settings: 21st day, n = 15; for Latent period for entrance into dark compartment, prior study: SI-86 10 mg/kg iv, mexydol 100, citocoline 250, actovegin 16, pyracetam 400 mg/kg ip
Experimental: as §1, §2
(§3) Evaluation of the ability of animals to learn and memorize of aversive stimulus was examined in the test of conditioned response of passive avoidance (CRPA). The technique is based on innate rat instinct to limited shadowy space. The study in rats was conducted in two-compartment unit consisted of two sections—light and dark. An animal was arranged into light compartment, fixing latency time for entering into the dark compartment, wherein rat received current irritation and ran in the light compartment. CRPA retention was tested every other day under latency time change of rat entering into the dark compartment. Also the number of animals was noted not fully entered the dark chamber. Cerebroprotective efficiency criteria of studied compounds were also animal death term (days) and their mortality rate (in %).

[3] = tested on: 11β-corticosterone; assay: 11β-corticosterone level in venous blood of rats with bilateral carotid occlusion (ELISA); assay type: in vivo, Wistar rats; settings: for dynamics in percents in relation to control pathology group / dynamics in percents in relation to the group of pseudo-operated animals / 11β-corticosterone level in venous blood: BCO
Experimental: The neuroprotective effect of 3,2′-spiro-pyrrolo-2-oxindole derivative (SI-86 compound) was studied in Wistar rats on a model of cerebrovascular accident (CVA) of ischemic type in archencephalic pool forming bilateral carotid occlusion (BCO) by carotid artery ligation. The ligations for common carotid arteries was imposed under propofol anesthesia at a dose of 60 mg/kg intraperitoneally (ip), using surgical access to the front of the neck cutting through its white line. The chosen model allows to reproduce the clinical pattern of ischemic stroke and is adequate for clinical study of potential neuroprotective substances (Drug discovery and Evaluation: pharmacological assays/H. Gerhard Vogel (ed.).-2nd ed. 1453p.).
The derivative of 3,2′-spiro-pyrrolo-2-oxindole was investigated in conventionally effective dose of 10 mg/kg […] (iv)—dose which is provided maximum antihypoxic activity of SI-86 compound by the results of our previous study. The reference drugs were injected intraperitoneally (ip). BCO was applied to the rats of control pathology and 0.9% NaCI solution was administered as therapy calculated for 2 ml/kg ip.
Pseudo-operated rats were exposed to all interventions (anesthesia, skin incision, dissection of vessels) except arteries ligation that leveled traumatic impact of experimental conditions.
To determine a corticosterone level (species-specific cortisol analogue in rats, which is also a substrate for 11β-HSD1) in the corresponding period (4 th and 21 st CVA day) in rat by sagittal sinus puncture, blood was sampled (0.2-0.4 ml). The cortisol level was measured by ELISA using a CORTICOSTERONEE KIT set (Germany) on the instrument of the company “Hipson” (Czech Republic).

[4] = tested on: neuron-specific enolase (NSE); assay: Neuron-specific enolase (NSE) activity in rats with bilateral carotid occlusion (ELISA); assay type: in vivo; settings: BCO; for NSE activity (dynamics of neurodestructive changes): n = 7
Experimental: The derivative of 3,2′-spiro-pyrrolo-2-oxindole was studied in conventionally effective dose of 10 mg/kg […] (iv)—dose that by the results of our previous study provided maximum antihypoxic activity of the SI-86compound. Reference drugs were injected intraperitoneally (ip). […] BCO was made to rats of control pathology and as therapy 0.9% NaCI solution was administered calculated for 2 ml/kg ip.
Pseudooperative rats were exposed to all interventions (anesthesia, skin incision, dissection of vessels) except arteries ligation that leveled traumatic effect of experimental conditions.
To determine neurospecific enolase, specific marker of cerebral ischemia,—to the period (4 th and 21 st day of CVA) in rat's blood was sampled by sagittal sinus puncture (0.2-0.4 ml). NSE activity was measured by ELISA using a set NSE EIA KIT (DAI, USA) on the instrument of the company “Hipson” (Czech Republic).

[5] = tested on: neuron-specific enolase (NSE); assay: Neuron-specific enolase (NSE) activity in rats with intracerebral hemorrhage (ELISA); assay type: in vivo; settings: for NSE activity (dynamics of neurodestructive changes): acute cerebral hemorrhage, n = 7; for enzyme activity decreased in relation to the control pathology group: hemorrhage
Experimental: The derivative of 3,2′-spiro-pyrrolo-2-oxindole was investigated in conventionally effective dose of 10 mg/kg […] (iv)—dose that according to the results of our previous studies provided maximum antihypoxic activity of SI-86 compound. Reference drugs were injected intraperitoneally (ip). […] Autoblood was injected to rats with control pathology and 0.9% NaCI solution was administered as therapy calculated for 2 ml/kg ip.
Psevdooperated rats were exposed to all interventions (anesthesia, craniotomy) with the exception of autoblood administration that leveled traumatic impact of experimental conditions.
To determine neuron-specific enolase, the specific marker of cerebral ischemia,—for corresponding period (4 th and 21 st day of CVA) in rats, blood was sampled by sagittal sinus puncture (0.2-0.4 ml). NSE activity was measured by ELISA using a set NSE EIA KIT (DAI, USA) on the instrument of the company “Hipson” (Czech Republic).

[6] = tested on: rats with intracerebral hemorrhage; assay: Lethality of rats with intracerebral hemorrhage of average severity; assay type: in vivo
Experimental: The chosen model allows to reproduce clinical pattern of […] and is adequate for clinical study of potential neuroprotective agents.
As comparators the following drugs were used: mexydol (“Mexydol” UC Pharmasoft, Russia), 100 mg/kg; citicoline (“Somazina” Ferrer International, SA, Spain), 250 mg/kg; aktovegin (“Aktovegin”, Nycomed, Austria), 16 mg/kg pyracetam (“Pyracetam” Darnitsa, Ukraine), 400 mg/kg. According to the latest clinical guidelines regarding the treatment of patients with CVA approved by the Ministry of Health of Ukraine (Order No. 602 dated 3 Aug. 2012), all these drugs are allowed to be included into schemes for intensive patients therapy with CVA as neuroprotective agents. They were used at recommended doses for preclinical studies (McGrow C. P. Experimental Cerebral Infarction Effects of Pentobarbital in Mongolian Gerbils/C. P. McGrow//Arch. Neurol.-1977.-Vol. 34, No. 6.-P. 334-336). Experimental therapy of acute cerebral ischemia with SI-86 compound and comparator started 1 hour after IUD once a day for 21 days. […] Reference drugs were injected intraperitoneally (ip). Rats of control pathology group were injected by autoblood and as therapy 0.9% NaCI solution was administered calculated for 2 ml/kg iv.
Pseudo-operated rats were exposed to all interventions (anesthesia, craniotomy) excluding autoblood administration that leveled traumatic impact of experimental conditions.
as §3
Quantitative data were processed using statistical StatPlus 2009 processing. The statistical significance of differences was assessed by Fisher's angular transformation (lethality outcome), also parametric t Student criterion were used in case of normal distribution of variation series, nonparametric W White criterion—in its absence.

[7] = day 4, SI-86 10 mg/kg iv, mexydol 100, citocoline 250, actovegin 16, pyracetam 400 mg/kg ip
[8] = day 4, SI-86 10 mg/kg iv, citocoline 250 mg/kg ip
[9] = 12 h, SI-86 10 mg/kg iv, mexydol 100, citocoline 250, actovegin 16, pyracetam 400 mg/kg

C[N+](C)(C)CCOP(=O)(O)OP(=O)([O-])OC[C@H]1O[C@@H](n2ccc(N)nc2=O)[C@H](O)[C@@H]1O [citocoline, reference compound]
neurological deficit, average point under C. P. McGrow scale [1, 7]: 5.0 points and 5.00 ± 0.18°*^#$ points | neurological deficit, average point under C. P. McGrow scale ([1]; day 21, same doses): 3.1 points and 3.10 ± 0.15°*^#&$ points | Latent period for entrance into dark compartment, prior study [2]: 12.50 ± 0.75°*^# s | dynamics in percents in relation to control pathology group ([3]; day 4): [−41.7%] | dynamics in percents in relation to the group of pseudo-operated animals ([3]; day 4): (+126.9%) | 11β-corticosterone level in venous blood [3, 8]: 272.79 ± 1.95°* ng/ml | dynamics in percents in relation to control pathology group ([3]; day 21): [−30.2%] | dynamics in percents in relation to the group of pseudo-operated animals ([3]; day 21): (+152.7%) | 11β-corticosterone level in venous blood ([3]; day 21, same doses): 235.52 ± 7.82°*^• ng/ml | corticosterone concentration in sagittal sinus blood decreased in relation to the control pathology group ([3]; after 96 hours): 41.7% | corticosterone concentration in sagittal sinus blood decreased in relation to the control pathology group ([3]; after 21 days): 30.2% | enzyme activity decreased in relation to the control pathology group ([4]; 96 hours): 1.27 times | enzyme activity decreased in relation to the control pathology group ([4]; 21 days): 2.03 times | NSE activity (dynamics of neurodestructive changes) [4, 8]: 0.972 ± 0.010 | NSE activity (dynamics of neurodestructive changes) ([4]; day 21, same doses): 0.385 ± 0.010 | NSE activity (dynamics of neurodestructive changes) [5, 8]: 1.292 ± 0.069 | NSE activity (dynamics of neurodestructive changes) ([5]; day 21, same doses): 0.309 ± 0.05 | enzyme activity decreased in relation to the control pathology group ([5]; 96 hours): 2.2 times | enzyme activity decreased in relation to the control pathology group ([5]; 21 days): 3.1 times

NC(=O)CN1CCCC1=O [pyracetam]
Lethality, % [6, 9]: 4.9% | Lethality, abs. [6, 9]: 2 | Lethality, % ([6]; 24 h, same doses): 14.6% | Lethality, abs. ([6]; 24 h, same doses): 6 | Lethality, % ([6]; 48 h, same doses): 22% | Lethality, abs. ([6]; 48 h, same doses): 9 | Lethality, % ([6]; 72 h, same doses): 24.4% | Lethality, abs. ([6]; 72 h, same doses): 10 | Lethality, % ([6]; 96 h, same doses): 27.5% | Lethality, abs. ([6]; 96 h, same doses): 11 | reduction of mortality in rats at the end of the observation period relative to control ([6]; within 4 days of therapy, same doses): no significant impact | neurological deficit, average point under C. P. McGrow scale [1, 7]: 6.90 ± 0.39° points | neurological deficit, average point under C. P. McGrow scale ([1]; day 21, same doses): 4.1 points and 4.10 ± 0.15°* points | Latent period for entrance into dark compartment, prior study [2]: 15.90 ± 0.51°* s | Latent period for entrance into dark compartment, 24 hours after study ([2]; same doses): 71.10 ± 2.21 s
